Results published in PMC3371172 (Chemical biology & drug design, 2012).
Non-standard residues stand in square brackets, D forms with d. Residues, ends and D or L forms follow the SMILES beside them. No end group written: not given here.

Experiments:
HUVEC [1] = conditions: 20 µM; cited from earlier work
HUVEC [2] = conditions: 20 µM; cited from earlier work; remark: listed apart in the source
HUVEC [3] = format: cell-based, human

| Molecule | inhibition of HUVEC proliferation (HUVEC [1]) | inhibition of HUVEC migration (HUVEC [2]) | IC50 (HUVEC [3]) |
| --- | --- | --- | --- |
| LRRFSTMPFMFCNINNVCNF [SP2000] | 70% | 60% | – |
| CC[C@H](C)[C@H](NC(=O)[C@H](CC(N)=O)NC(=O)[C@@H](NC(=O)[C@H](Cc1ccccc1)NC(=O)[C@@H](C)NC(=O)[C@H](Cc1ccccc1)NC(=O)[C@@H]1CCCN1C(=O)[C@H](CCSC)NC(=O)[C@@H](NC(=O)[C@H](CO)NC(=O)[C@H](Cc1ccccc1)NC(=O)[C@H](CCCNC(=N)N)NC(=O)[C@H](CCCNC(=N)N)NC(=O)[C@@H](N)CC(C)C)[C@@H](C)O)[C@@H](C)CC)C(=O)N[C@@H](CC(N)=O)C(=O)N[C@@H](CC(N)=O)C(=O)N[C@H](C(=O)N[C@H](C(=O)N[C@@H](CC(N)=O)C(=O)N[C@@H](Cc1ccccc1)C(N)=O)[C@@H](C)CC)C(C)C [SP2034] (H-LRRFSTMPF[dA]FININNVINF-NH2) | – | – | 0.54 ± 0.19 µM |
| LRRFSTMPFMFININNVINF-NH2 [SP2024] | – | – | 7.45 ± 5.7 µM |
